Reference: patent publication US20020137929A1, “1 - (3-heterocyclylphenyl) isothiourea, -isourea, -guanidine and -amidine herbicidal agents” (Intellectual Property Department, BASF Aktiengesellschaft, priority 1998, published 2002)

What was measured:
[1] = test system: ORYSAT (Rice, Tebonnet); assay: Preemergence herbicidal evaluation; assay type: in vivo, Oryza sativa, (L.) Tebonnet; settings: preemergence, rated 4-5 weeks after treatment, 0-9 scale
In short: (§1)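 Scores use a 0–9 visual scale covering stand, vigor, malformation, size and chlorosis relative to controls, rated four to five weeks after treatment. Before emergence, soil-planted seeds were sprayed with compound in aqueous acetone at roughly 0.0156–0.500 kg/ha and held in the greenhouse.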

[2] = test system: SETVI (Foxtail, Green); assay: Preemergence herbicidal evaluation; assay type: in vivo, Setaria viridis; settings: preemergence, rated 4-5 weeks after treatment, 0-9 scale
In short: as §1

[3] = test system: SAGPY (Arrowhead (Pygmaea)); assay: Preemergence weed control under flooded paddy conditions; assay type: in vivo, Sagittaria pygmaea; settings: rated 3-4 weeks after treatment
In short: (§2)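 Using flooded silt loam (water 1.5 to 3 cm deep), seeds sown in the top 0.5 cm were exposed preemergence to compound pipetted into the flood at about 0.0313 to 0.500 kg/ha. Effects were scored 0-9 by eye three to four weeks later.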

[4] = test system: CYPSE (Flatsedge); assay: as above; assay type: in vivo, Cyperus serotinus; settings: rated 3-4 weeks after treatment
In short: as §2

[5] = test system: TRZAWR (Wheat, Winter, cv Riband); assay: Postemergence herbicidal evaluation; assay type: in vivo, Triticum aestivum; settings: postemergence
In short: (§3)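 Seedlings grown about two weeks were sprayed at 40 psi with compound dispersed in 50/50 acetone/water plus 0.5% TWEEN 20, at about 0.0156 to 0.500 kg/ha. Plants were kept in the greenhouse and scored 4–5 weeks later on a 0–9 visual scale against untreated controls.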

[6] = test system: MOOVA (Monochoria); assay: Preemergence weed control under flooded paddy conditions; assay type: in vivo, Monochoria vaginalis; settings: rated 3-4 weeks after treatment
In short: as §2

[7] = test system: GLXMAW (Soybean, Williams); assay: Postemergence herbicidal evaluation; assay type: in vivo, Glycine max, (L.) Merr. cv Williams; settings: postemergence
In short: as §3

[8] = test system: ECHORC (Watergrass (Calif.)); assay: Preemergence weed control under flooded paddy conditions; assay type: in vivo, Echinochloa oryzoides; settings: rated 3-4 weeks after treatment
In short: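 First, seeds or propagules go into the top 0.5 cm of silt loam; next, water is held 1.5 to 3 cm over the soil; then compound (50/50 acetone/water) is pipetted into it at about 0.0313 to 0.500 kg/ha; finally plants are rated visually 0-9 after three to four weeks.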

[9] = test system: SAGPY (Arrowhead (Pygmaea)); assay: Postemergence weed control under flooded paddy conditions; assay type: in vivo, Sagittaria pygmaea; settings: postemergence weeds, rated 3 to 4 weeks after treatment
In short: (§4)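 Flood-water application, about 0.0313–0.500 kg/ha a.i. in aqueous/acetone 50/50 v/v; water depth 1.5–3 cm throughout. Weeds 3–5 cm, rice 1.5–2.5 leaf. Greenhouse; 0–9 visual rating vs control at 3–4 wk.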

[10] = test system: GALAP (Galium); assay: Preemergence herbicidal evaluation; assay type: in vivo, Galium aparine; settings: preemergence, rated 4-5 weeks after treatment, 0-9 scale
In short: as §1

[11] = test system: ECHORC (Watergrass (Calif.)); assay: Postemergence weed control under flooded paddy conditions; assay type: in vivo, Echinochloa oryzoides; settings: postemergence weeds, rated 3 to 4 weeks after treatment
In short: as §4

[12] = test system: GALAP (Galium); assay: Postemergence herbicidal evaluation; assay type: in vivo, Galium aparine; settings: postemergence
In short: as §3

[13] = test system: AMBEL (Ragweed, Common); assay: Postemergence herbicidal evaluation; assay type: in vivo, Ambrosia artemisifolia; settings: postemergence
In short: as §3

[14] = test system: CASOB (Sicklepod); assay: Postemergence herbicidal evaluation; assay type: in vivo, Cassia obtusifolia; settings: postemergence
In short: as §3

SMILES: C=CCN1C(=O)C(CC(=O)NOC)SC1=Nc1cc(-n2c(=O)cc(C(F)(F)F)n(C)c2=O)c(F)cc1Cl (centres unmarked) [Compound 85]
- ORYSAT rating ([1]; 0.0156 kg/ha): 0.0
- ORYSAT rating ([1]; 0.0313 kg/ha): 0.0
- ORYSAT rating ([1]; 0.0625 kg/ha): 0.0
- ORYSAT rating ([1]; 0.1250 kg/ha): 0.0
- ORYSAT rating ([1]; 0.2500 kg/ha): 2.0
- ORYSAT rating ([1]; 0.5000 kg/ha): 3.0
- SETVI rating ([2]; 0.0156 kg/ha): 0.0
- SETVI rating ([2]; 0.0313 kg/ha): 0.0
- SETVI rating ([2]; 0.0625 kg/ha): 0.0
- SETVI rating ([2]; 0.1250 kg/ha): 0.0
- SETVI rating ([2]; 0.2500 kg/ha): 9.0
- SETVI rating ([2]; 0.5000 kg/ha): 9.0
- SAGPY herbicidal effect rating ([3]; 0.0313 kg/ha): 3.0
- SAGPY herbicidal effect rating ([3]; 0.0625 kg/ha): 3.0
- SAGPY herbicidal effect rating ([3]; 0.1250 kg/ha): 9.0
- SAGPY herbicidal effect rating ([3]; 0.2500 kg/ha): 9.0
- CYPSE herbicidal effect rating ([4]; 0.0313 kg/ha): 0.0
- CYPSE herbicidal effect rating ([4]; 0.0625 kg/ha): 2.0
- CYPSE herbicidal effect rating ([4]; 0.1250 kg/ha): 2.0
- CYPSE herbicidal effect rating ([4]; 0.2500 kg/ha): 9.0
- TRZAWR herbicidal rating ([5]; rate 0.0156 kg/ha): 3.0
- TRZAWR herbicidal rating ([5]; rate 0.0313 kg/ha): 3.5
- TRZAWR herbicidal rating ([5]; rate 0.0625 kg/ha): 4.5
- TRZAWR herbicidal rating ([5]; rate 0.1250 kg/ha): 5.0
- MOOVA herbicidal effect rating ([6]; 0.0313 kg/ha): 9.0
- MOOVA herbicidal effect rating ([6]; 0.0625 kg/ha): 9.0
- MOOVA herbicidal effect rating ([6]; 0.1250 kg/ha): 9.0
- MOOVA herbicidal effect rating ([6]; 0.2500 kg/ha): 9.0
- GLXMAW herbicidal rating ([7]; rate 0.0156 kg/ha): 4.5
- GLXMAW herbicidal rating ([7]; rate 0.0313 kg/ha): 6.0
- GLXMAW herbicidal rating ([7]; rate 0.0625 kg/ha): 6.0
- GLXMAW herbicidal rating ([7]; rate 0.1250 kg/ha): 7.5
- ECHORC herbicidal effect rating ([8]; 0.0313 kg/ha): 4.0
- ECHORC herbicidal effect rating ([8]; 0.0625 kg/ha): 5.0
- ECHORC herbicidal effect rating ([8]; 0.1250 kg/ha): 7.0
- ECHORC herbicidal effect rating ([8]; 0.2500 kg/ha): 9.0
- Herbicidal rating SAGPY ([9]; Rate 0.0313 kg/ha): 3.0
- Herbicidal rating SAGPY ([9]; Rate 0.0625 kg/ha): 3.0
- Herbicidal rating SAGPY ([9]; Rate 0.1250 kg/ha): 9.0
- Herbicidal rating SAGPY ([9]; Rate 0.2500 kg/ha): 9.0
- GALAP rating ([10]; 0.0156 kg/ha): 0.0
- GALAP rating ([10]; 0.0313 kg/ha): 0.0
- GALAP rating ([10]; 0.0625 kg/ha): 0.0
- GALAP rating ([10]; 0.1250 kg/ha): 4.0
- GALAP rating ([10]; 0.2500 kg/ha): 6.0
- GALAP rating ([10]; 0.5000 kg/ha): 9.0
- Herbicidal rating ECHORC ([11]; Rate 0.0313 kg/ha): 4.0
- Herbicidal rating ECHORC ([11]; Rate 0.0625 kg/ha): 5.0
- Herbicidal rating ECHORC ([11]; Rate 0.1250 kg/ha): 7.0
- Herbicidal rating ECHORC ([11]; Rate 0.2500 kg/ha): 9.0
- GALAP herbicidal rating ([12]; rate 0.0156 kg/ha): 0.0
- GALAP herbicidal rating ([12]; rate 0.0313 kg/ha): 1.0
- GALAP herbicidal rating ([12]; rate 0.0625 kg/ha): 3.0
- GALAP herbicidal rating ([12]; rate 0.1250 kg/ha): 5.0
- AMBEL herbicidal rating ([13]; rate 0.0156 kg/ha): 9.0
- AMBEL herbicidal rating ([13]; rate 0.0313 kg/ha): 9.0
- AMBEL herbicidal rating ([13]; rate 0.0625 kg/ha): 9.0
- AMBEL herbicidal rating ([13]; rate 0.1250 kg/ha): 9.0
- CASOB herbicidal rating ([14]; rate 0.0156 kg/ha): 0.0
- CASOB herbicidal rating ([14]; rate 0.0313 kg/ha): 0.0
- CASOB herbicidal rating ([14]; rate 0.0625 kg/ha): 0.0
- CASOB herbicidal rating ([14]; rate 0.1250 kg/ha): 2.0
